Results from patent US8133913B2, “Substituted indeno [1,2-b]indole derivatives as novel inhibitors of protein kinase CK2 and their use as tumor therapeutic agents, cytostatics and diagnostic aids” (Heinrich-Heine Universitat Dusseldof, priority 2006, dated 2012).
Where two headings read alike, the source gives them in different places.

What was measured:
Assay in all cases: Radiometric protein kinase assay (33PanQinase Activity Assay)
Format in all cases: biochemical
FLT3 = target: T1, FLT3 (Homo sapiens, UniProt P36888)
T1 construct: made in house; host or cells: Sf9 insect cells, baculovirus
T1 sequence (P36888 27-993): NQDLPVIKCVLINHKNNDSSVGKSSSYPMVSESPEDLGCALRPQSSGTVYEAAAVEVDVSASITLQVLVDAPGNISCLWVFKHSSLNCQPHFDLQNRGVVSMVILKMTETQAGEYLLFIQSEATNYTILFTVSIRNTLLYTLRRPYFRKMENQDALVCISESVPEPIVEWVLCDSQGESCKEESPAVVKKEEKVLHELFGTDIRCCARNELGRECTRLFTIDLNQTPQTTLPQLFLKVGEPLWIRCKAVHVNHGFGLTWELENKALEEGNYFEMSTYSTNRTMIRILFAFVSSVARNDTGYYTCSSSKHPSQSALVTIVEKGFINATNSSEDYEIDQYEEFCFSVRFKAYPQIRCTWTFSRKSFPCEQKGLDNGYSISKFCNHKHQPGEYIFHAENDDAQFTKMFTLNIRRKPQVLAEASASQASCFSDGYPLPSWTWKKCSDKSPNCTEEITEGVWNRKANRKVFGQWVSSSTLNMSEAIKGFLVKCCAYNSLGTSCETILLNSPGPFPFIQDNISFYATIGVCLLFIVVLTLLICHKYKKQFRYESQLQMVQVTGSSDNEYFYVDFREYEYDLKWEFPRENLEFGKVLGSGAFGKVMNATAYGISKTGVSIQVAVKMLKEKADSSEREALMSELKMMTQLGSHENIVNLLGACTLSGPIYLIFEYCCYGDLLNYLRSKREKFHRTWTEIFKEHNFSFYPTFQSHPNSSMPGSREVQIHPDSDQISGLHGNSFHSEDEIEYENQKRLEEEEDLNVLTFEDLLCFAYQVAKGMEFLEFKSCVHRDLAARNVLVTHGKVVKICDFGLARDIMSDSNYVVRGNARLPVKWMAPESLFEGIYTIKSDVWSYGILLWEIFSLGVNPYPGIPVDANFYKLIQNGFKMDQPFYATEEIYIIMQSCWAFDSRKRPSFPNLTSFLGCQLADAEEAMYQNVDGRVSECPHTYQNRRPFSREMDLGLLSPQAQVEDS
From the text: (§1) AKTI1, ARK5, Aurora-A, Aurora-B, B-RAF-VE, CDK2/CycA, CDK4/CycD1, CK2-alpha1 (catalytic subunit of CK2), EGF-R, EPHB4, ERBB2, FAK, IGF1-R, SRC, VEGF-R2, VEGF-R3, FLT3, INS-R, MET, PDGFR-beta, PLK1, SAK, TIE2, COT.
(§2) All the protein kinases were expressed in Sf9 insect cells as human recombinant GST fusion proteins or His-tagged proteins by the baculovirus expression system. Kinases were purified by affinity chromatography either by GSH-agarose (Sigma) or Ni—NTH-agarose (Qiagen). The purity of the kinases was tested by SDS-PAGE/silver staining, and the identity of the kinases was verified by Western blot analysis with specific antibodies or mass spectroscopy.
(§3) A radiometric protein kinase assay (33PanQinase® Activity Assay) was used to measure the kinase activity for the 24 protein kinases. The kinase assays were carried out in 96-well FlashPlates™ from Perkin Elmer/NEN (Boston, Mass., USA) in a reaction volume of 50 μl. The reaction mixture was pipetted in 4 steps in the following sequence: • 20 μl of assay buffer • 5 μl of ATP solution (in H2O) • 5 μl of test compound (in 10% DMSO) • 10 μl of substrate/10 μl of enzyme solution (premixed)
(§4) The assays for all the enzymes contained 60 mM HEPES-NaOH, pH 7.5, 3 mM MgCl2, 3 mM MnCl2, 3 μM Na orthovanadate, 1.2 mM DTT, 50 μg/ml PEG20000, 1 μM [γ-^33P]-ATP (about 5×10^5 cpm per well).
(§5) The reaction mixture was incubated at 30° C. for 80 minutes. The reaction was stopped with 50 μl of 2% (v/v) H3PO4. The plates were aspirated and washed twice with 200 μl of 0.9% (w/v) NaCl. The incorporation of ^33Pi was determined using a microtiter plates scintillation counter (Microbeta Trilux, Wallac).

COT = target: T2, COT (Homo sapiens, UniProt P41279)
T2 construct: made in house; host or cells: Sf9 insect cells (baculovirus)
T2 sequence (P41279 whole entry): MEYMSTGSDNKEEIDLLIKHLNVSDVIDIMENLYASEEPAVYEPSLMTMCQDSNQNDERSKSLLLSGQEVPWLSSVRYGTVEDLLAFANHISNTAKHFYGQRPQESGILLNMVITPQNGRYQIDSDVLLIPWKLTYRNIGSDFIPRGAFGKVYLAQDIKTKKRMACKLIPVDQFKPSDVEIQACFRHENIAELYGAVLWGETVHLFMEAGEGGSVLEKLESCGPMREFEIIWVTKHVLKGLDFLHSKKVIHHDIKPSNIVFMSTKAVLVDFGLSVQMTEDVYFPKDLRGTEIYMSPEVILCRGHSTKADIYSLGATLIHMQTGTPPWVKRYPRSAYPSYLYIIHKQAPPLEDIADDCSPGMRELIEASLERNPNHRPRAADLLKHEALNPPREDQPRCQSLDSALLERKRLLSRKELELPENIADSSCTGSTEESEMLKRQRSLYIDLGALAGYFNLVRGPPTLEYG
From the text: as §1, §2, §3, §4, §5

Aurora-B = target: T3, Aurora-B (Homo sapiens, UniProt Q96GD4)
T3 construct: made in house; host or cells: Sf9 insect cells, baculovirus
T3 sequence (Q96GD4 whole entry): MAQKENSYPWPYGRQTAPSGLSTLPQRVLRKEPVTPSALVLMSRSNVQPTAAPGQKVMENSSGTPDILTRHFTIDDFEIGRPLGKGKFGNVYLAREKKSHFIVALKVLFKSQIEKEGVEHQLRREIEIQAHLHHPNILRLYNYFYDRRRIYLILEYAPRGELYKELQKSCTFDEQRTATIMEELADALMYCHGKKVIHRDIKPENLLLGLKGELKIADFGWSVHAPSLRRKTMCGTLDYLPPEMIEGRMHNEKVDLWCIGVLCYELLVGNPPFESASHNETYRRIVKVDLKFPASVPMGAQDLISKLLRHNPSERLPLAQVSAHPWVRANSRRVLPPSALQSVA
From the text: as §1, §2, §3, §4, §5

INS-R = target: T4, INS-R (Homo sapiens, UniProt P06213)
T4 construct: made in house; host or cells: Sf9 insect cells, baculovirus
T4 sequence (P06213 980-1382 limits assumed): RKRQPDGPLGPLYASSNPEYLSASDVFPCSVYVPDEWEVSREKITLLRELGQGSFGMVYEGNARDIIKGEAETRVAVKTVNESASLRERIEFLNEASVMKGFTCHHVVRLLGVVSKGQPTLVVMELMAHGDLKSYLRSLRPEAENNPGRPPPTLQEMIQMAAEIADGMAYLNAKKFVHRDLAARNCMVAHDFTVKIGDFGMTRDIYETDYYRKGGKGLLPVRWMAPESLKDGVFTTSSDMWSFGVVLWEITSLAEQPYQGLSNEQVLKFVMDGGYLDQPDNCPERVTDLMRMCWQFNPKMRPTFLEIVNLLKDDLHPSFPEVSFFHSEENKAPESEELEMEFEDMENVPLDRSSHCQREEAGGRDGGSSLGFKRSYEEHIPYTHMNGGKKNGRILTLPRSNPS
From the text: as §1, §2, §3, §4, §5

B-RAF-VE = target: T5, B-RAF-VE (Homo sapiens, UniProt P15056, V600E)
T5 construct: made in house; host or cells: Sf9 insect cells, baculovirus
T5 sequence (P15056 whole entry V600E): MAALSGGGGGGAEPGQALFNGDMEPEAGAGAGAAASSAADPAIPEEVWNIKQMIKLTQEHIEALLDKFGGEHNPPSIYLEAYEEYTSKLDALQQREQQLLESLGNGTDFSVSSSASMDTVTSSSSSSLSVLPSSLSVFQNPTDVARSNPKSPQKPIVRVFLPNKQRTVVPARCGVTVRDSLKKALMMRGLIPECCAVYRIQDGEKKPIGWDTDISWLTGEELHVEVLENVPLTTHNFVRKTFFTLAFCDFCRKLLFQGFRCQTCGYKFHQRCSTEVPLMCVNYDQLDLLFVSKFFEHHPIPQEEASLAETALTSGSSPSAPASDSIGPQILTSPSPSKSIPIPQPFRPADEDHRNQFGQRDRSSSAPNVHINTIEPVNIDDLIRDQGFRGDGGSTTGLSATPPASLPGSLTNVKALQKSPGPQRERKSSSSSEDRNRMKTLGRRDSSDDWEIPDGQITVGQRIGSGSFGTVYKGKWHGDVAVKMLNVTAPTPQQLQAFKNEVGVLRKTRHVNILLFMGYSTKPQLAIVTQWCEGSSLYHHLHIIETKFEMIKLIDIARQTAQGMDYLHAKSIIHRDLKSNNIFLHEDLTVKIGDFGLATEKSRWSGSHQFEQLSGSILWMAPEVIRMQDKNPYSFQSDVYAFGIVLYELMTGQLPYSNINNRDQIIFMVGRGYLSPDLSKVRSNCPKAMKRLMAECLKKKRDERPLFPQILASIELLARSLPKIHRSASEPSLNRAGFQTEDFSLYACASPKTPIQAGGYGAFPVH
From the text: as §1, §2, §3, §4, §5

VEGF-R2 = target: T6, VEGF-R2 (Homo sapiens, UniProt P35968)
T6 construct: made in house; host or cells: Sf9 insect cells, baculovirus
T6 sequence (P35968 20-1356): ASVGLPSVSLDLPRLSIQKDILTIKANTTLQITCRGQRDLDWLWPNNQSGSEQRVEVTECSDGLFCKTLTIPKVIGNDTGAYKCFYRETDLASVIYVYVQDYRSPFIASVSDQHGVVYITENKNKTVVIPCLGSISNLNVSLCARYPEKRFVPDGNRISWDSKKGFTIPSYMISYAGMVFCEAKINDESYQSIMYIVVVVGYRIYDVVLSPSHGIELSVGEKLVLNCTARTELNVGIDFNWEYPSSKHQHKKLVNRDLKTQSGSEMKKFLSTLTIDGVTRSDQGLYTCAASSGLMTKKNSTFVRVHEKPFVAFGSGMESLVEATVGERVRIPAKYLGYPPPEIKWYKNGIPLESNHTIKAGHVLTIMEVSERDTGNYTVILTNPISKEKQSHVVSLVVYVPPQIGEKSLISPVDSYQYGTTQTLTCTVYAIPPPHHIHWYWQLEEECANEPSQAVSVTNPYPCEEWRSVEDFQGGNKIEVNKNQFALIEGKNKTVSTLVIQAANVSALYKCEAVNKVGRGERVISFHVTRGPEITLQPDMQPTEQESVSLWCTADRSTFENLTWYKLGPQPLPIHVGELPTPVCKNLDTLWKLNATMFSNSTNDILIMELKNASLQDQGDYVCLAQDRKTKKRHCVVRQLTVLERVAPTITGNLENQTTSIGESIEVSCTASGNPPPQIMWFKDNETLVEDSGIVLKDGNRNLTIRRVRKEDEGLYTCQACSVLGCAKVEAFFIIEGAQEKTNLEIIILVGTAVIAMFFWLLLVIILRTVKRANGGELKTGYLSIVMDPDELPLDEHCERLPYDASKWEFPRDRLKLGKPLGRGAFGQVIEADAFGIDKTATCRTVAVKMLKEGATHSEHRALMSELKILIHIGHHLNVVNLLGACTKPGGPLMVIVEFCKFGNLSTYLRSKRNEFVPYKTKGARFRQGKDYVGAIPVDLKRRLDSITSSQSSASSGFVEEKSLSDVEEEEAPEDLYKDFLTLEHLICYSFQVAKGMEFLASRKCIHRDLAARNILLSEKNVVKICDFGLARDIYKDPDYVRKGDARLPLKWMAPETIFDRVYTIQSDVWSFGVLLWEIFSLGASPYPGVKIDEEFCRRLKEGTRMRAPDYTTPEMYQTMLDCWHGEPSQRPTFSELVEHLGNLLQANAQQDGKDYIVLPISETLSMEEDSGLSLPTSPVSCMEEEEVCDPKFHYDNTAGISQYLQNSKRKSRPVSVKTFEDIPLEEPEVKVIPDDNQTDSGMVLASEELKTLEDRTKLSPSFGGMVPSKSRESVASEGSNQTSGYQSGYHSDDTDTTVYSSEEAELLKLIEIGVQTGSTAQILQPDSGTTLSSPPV
From the text: as §1, §2, §3, §4, §5

[1] = 1 μM ATP, read-out: IC50 values [μM] FLT3
[2] = 1 μM ATP, autophosphorylation, read-out: IC50 values [μM] COT
[3] = 1 μM ATP, read-out: IC50 values [μM] Aurora-B
[4] = 1 μM ATP, read-out: IC50 values [μM] INS-R
[5] = 1 μM ATP, read-out: IC50 values [μM] B-RAF-VE
[6] = 1 μM ATP, read-out: IC50 values [μM] VEGF-R2

CC(C)n1c2c(c3c1-c1ccccc1C3=O)C(=O)CCC2 [Compound 4b, 5-Isopropyl-5,6,7,8-tetrahydroindeno[1,2-b]indole-9,10-dione]
IC50 (FLT3): > 10 µM
IC50 (COT): > 10 µM
IC50 (Aurora-B): > 10 µM
IC50 (INS-R): > 10 µM
IC50 (B-RAF-VE): > 10 µM
IC50 (VEGF-R2): > 10 µM

CC(C)n1c2c(=O)ccc(=O)c2c2c(=O)c3ccccc3c21 [Compound 6b, 5-Isopropyl-5H-indeno[1,2-b]indole-6,9,10-trione]
IC50 (FLT3; [1]): 0.051 µM
IC50 (COT; [2]): 9.3 µM
IC50 (Aurora-B; [3]): 5.4 µM
IC50 (INS-R; [4]): 1.6 µM
IC50 (B-RAF-VE; [5]): > 10 µM
IC50 (VEGF-R2; [6]): 1.9 µM

O=c1ccc(=O)c2c1c1c(=O)c3ccccc3c1n2Cc1ccccc1 [Compound 6c, 5-Benzyl 5,6,9,10-tetrahydroindeno[1,2-b]indole-6,9,10-trione]
IC50 (FLT3; [1]): 9.2 µM
IC50 (COT; [2]): 4.4 µM
IC50 (Aurora-B; [3]): > 10 µM
IC50 (INS-R; [4]): 6.5 µM
IC50 (B-RAF-VE; [5]): > 10 µM
IC50 (VEGF-R2; [6]): 3.3 µM
